Experimental data from ChEMBL document CHEMBL4351004, “New 3-tetrazolyl-β-carbolines and β-carboline-3-carboxylates with anti-cancer activity” (2019).

Legend:
Assay type in all cases: functional
U-251 = test: Antiproliferative activity against human U251 cells assessed as growth inhibition after 48 hrs by sulforhodamine B assay; settings: U-251, 48 h
[1] = Antiproliferative activity against human UACC61 cells assessed as growth inhibition after 48 hrs by sulforhodamine B assay
MCF7 = test: Antiproliferative activity against human MCF7 cells assessed as growth inhibition after 48 hrs by sulforhodamine B assay; settings: MCF7, 48 h
NCI/ADR-RES = test: Antiproliferative activity against human NCI-ADR-RES cells assessed as growth inhibition after 48 hrs by sulforhodamine B assay
786-0 = test: Antiproliferative activity against human 786-0 cells assessed as growth inhibition after 48 hrs by sulforhodamine B assay; settings: 786-0, 48 h
NCI-H460 = test: Antiproliferative activity against human NCI-H460 cells assessed as growth inhibition after 48 hrs by sulforhodamine B assay; settings: NCI-H460, 48 h
PC-3 = test: Antiproliferative activity against human PC3 cells assessed as growth inhibition after 48 hrs by sulforhodamine B assay; settings: PC-3, 48 h
OVCAR-3 = test: Antiproliferative activity against human OVCAR3 cells assessed as growth inhibition after 48 hrs by sulforhodamine B assay; settings: OVCAR-3, 48 h
HT-29 = test: Antiproliferative activity against human HT-29 cells assessed as growth inhibition after 48 hrs by sulforhodamine B assay; settings: HT-29, 48 h
K562 = test: Antiproliferative activity against human K562 cells assessed as growth inhibition after 48 hrs by sulforhodamine B assay; settings: K562, 48 h

Compound | GI50 (U-251) [µM] | GI50 [1] [µM] | GI50 (MCF7) [µM] | GI50 (NCI/ADR-RES) [µM] | GI50 (786-0) [µM] | GI50 (NCI-H460) [µM] | GI50 (PC-3) [µM] | GI50 (OVCAR-3) [µM] | GI50 (HT-29) [µM] | GI50 (K562) [µM]
CCOC(=O)c1cc2c([nH]c3ccc(OC)cc32)c(-c2ccc(N(C)C)cc2)n1 | 0.95 | 0.28 | > 100 | 4.29 | 1.4 | 12.7 | 7.74 | > 100 | > 100 | > 100
c1ccc(Cn2nnnc2-c2cc3c([nH]c4ccccc43)c(-c3ccccc3)n2)cc1 | 63.5 | 37 | 4.4 | 71 | 70.6 | 31.9 | > 100 | > 100 | > 100 | 27.4
CCOC(=O)c1cc2c([nH]c3ccc(OC)cc32)c(-c2ccccc2)n1 | > 100 | > 100 | 79.6 | > 100 | > 100 | > 100 | > 100 | > 100 | > 100 | > 100
COC(=O)c1cc2c([nH]c3ccccc32)c(-c2ccc(OC)cc2)n1 | – | 2.61 | 52.7 | 1.11 | 32.7 | 0.38 | 10.2 | 39.4 | 24.8 | 0.04
CCOC(=O)c1cc2c([nH]c3ccc(OC)cc32)c(-c2ccc(OC)cc2)n1 | 70.8 | > 100 | > 100 | > 100 | 20.9 | 74.8 | > 100 | > 100 | > 100 | > 100
COC(=O)c1cc2c([nH]c3ccccc32)c(-c2ccc(N(C)C)cc2)n1 | – | 3.61 | 36.8 | 11.6 | 20.4 | 15.3 | 9.56 | 28.4 | 34 | 21.8
Fc1ccc(-c2nc(-c3nnn[nH]3)cc3c2[nH]c2ccccc23)cc1 | 8.17 | 63.3 | 10.1 | 36.6 | 64.5 | 14.8 | 71.8 | 0.27 | 25.6 | 10.7
CCOC(=O)c1cc2c([nH]c3ccc(OC)cc32)c(-c2ccccc2Cl)n1 | 22.1 | 7.71 | > 100 | > 100 | 12.2 | 65.6 | > 100 | > 100 | > 100 | > 100
COC(=O)c1cc2c([nH]c3ccccc32)c(-c2cccc([N+](=O)[O-])c2)n1 | – | 7.02 | > 100 | > 100 | 31.7 | > 100 | > 100 | > 100 | > 100 | 3.05
COC(=O)c1cc2c([nH]c3ccccc32)c(-c2ccc(O)cc2)n1 | – | 12 | 27.5 | 25.7 | 29.5 | 28.5 | 20.7 | 21.1 | 25.1 | > 100
COC(=O)c1cc2c([nH]c3ccccc32)c(-c2ccccc2)n1 | – | 5.45 | > 100 | > 100 | > 100 | > 100 | > 100 | > 100 | > 100 | > 100
COc1cccc2c1C(=O)c1c(O)c3c(c(O)c1C2=O)C[C@@](O)(C(=O)CO)C[C@@H]3O[C@H]1C[C@H](N)[C@H](O)[C@H](C)O1 [DOXORUBICIN] | 0.21 | 0.047 | 0.073 | 1.44 | 0.15 | 0.37 | 0.74 | 0.0087 | 2.58 | 1.11
Fc1ccc(-c2nc(-c3nnnn3Cc3ccccc3)cc3c2[nH]c2ccccc23)cc1 | 1.38 | > 100 | 1.04 | 2.07 | 0.69 | 20.2 | 6.11 | 0.57 | 6.51 | 0.69
CCOC(=O)c1cc2c([nH]c3ccc(C)cc32)c(-c2ccc(OC)cc2)n1 | 7.07 | 23.3 | 32.2 | 41.6 | 4.27 | 11.6 | > 100 | 0.61 | 80.1 | 25.1
CCOC(=O)c1cc2c([nH]c3ccc(OC)cc32)c(-c2ccc(O)cc2)n1 | 7.26 | > 100 | 6.57 | 6.54 | 7.51 | 6.95 | 3.28 | 0.66 | 7.74 | 4.36
COC(=O)c1cc2c([nH]c3ccccc32)c(-c2ccccc2Cl)n1 | – | 5.76 | 36.4 | 27.6 | 42.4 | 26.8 | 22.3 | 21.6 | 25.3 | 13.5
CCOC(=O)c1cc2c([nH]c3ccc(OC)cc32)c(-c2cccc([N+](=O)[O-])c2)n1 | > 100 | 19.7 | > 100 | > 100 | > 100 | > 100 | > 100 | > 100 | > 100 | > 100
CCOC(=O)c1cc2c([nH]c3ccc(C)cc32)c(-c2ccccc2)n1 | 7.44 | 28.2 | 5.08 | 2.66 | 10.8 | 6.96 | 20.6 | 0.6 | 7.14 | 1.24
COc1ccc(-c2nc(-c3nnnn3Cc3ccccc3)cc3c2[nH]c2ccccc23)cc1 | 3.82 | 88.1 | 1.32 | 2.7 | 2.17 | 1.59 | 5.73 | 1.62 | 18.3 | 7.14
